Laboratory results published in patent US10016382B2, “Method for decreasing skeletal muscle damage and/or oxidative stress in mammals” (LONZA INC., priority 2014, dated 2018).
Several values for one entry are separate records, joined by “and”; a condition that tells them apart may be missing. Equal entries are not always repeated.

Tested on: Labrador Retrievers
Assay: Time of final 15 mile endurance run, Example 1 (90 day study)
Assay type: in vivo, dog
Details: Ex.1, 250 mg/d; for Final run time: 15 mile run at end of 90 day study, mean ± SEM
Protocol: Forty Labrador Retrievers were divided into two equal groups of twenty (11 males, 9 females) based on gender, body weight (“BW”), genetics, and lean mass and fed a low L-carnitine basal diet for a 90 day feeding period. The experimental dogs were fed the low L-carnitine basal for 10 days prior to the start of the study. Twenty of the Labs received 250 mg/day of L-carnitine (batch D22312) and 3.75 g of sugar and twenty of the Labs received 4 g/d of sugar. The dogs were scanned with a GE Prodigy DEXA system immediately prior to beginning of the study and the determined lean mass was utilized as a key component for helping assort the dogs equally between the control and L-carnitine group. A serum sample was obtained from each dog to determine a baseline value for blood biomarkers that were used to evaluate muscle damage and antioxidant status. The L-carnitine and control performance dogs were put through a weekly running program consisting of running sprint type shorter runs of higher intensity twice weekly (1200 yds/session increasing to 2400 yds/session over 10 wk period) and running endurance longer runs one time per wk (increasing from 5 miles/session to 10 miles per session over a 10 wk period). Each performance dog also wore the Actical activity monitor during the last endurance run. The dogs were put through a 15 mile run that included mud, water, tall grass, and swimming. The dogs were timed when they completed the course. The dogs were encouraged by kennel staff that rode along in a 4 wheel all terrain type vehicle during all of the endurance runs. […] Immediately following the 15 mile endurance run, each dog was placed in a kennel and evaluated for recovery time for body temperature (every 15 minutes for 2 hr) and heart rate (every 2 minutes for 14 minutes). Twenty four hours after test dogs ran the last 15 endurance run, post-run serum samples were taken to evaluate biomarkers for muscle damage and antioxidant status. Each test dog was also scanned with the GE Prodigy DEXA to determine body composition change that occurred during the course of the 13 wk study. Experimental Design: Forty Labrador Retrievers (labs) ranging in age from 1 to 3.5 years were incorporated into a two dietary treatment study. The two dietary treatments were based on feeding the test dogs the same low L-carnitine diet but adding 250 mg per day of L-carnitine to the L-carnitine group. Each of the L-carnitine dogs received the daily 250 mg of L-carnitine mixed with an additional 3.75 g sugar. The control dogs received 4 g of sugar each day. Twenty labs of equal gender, age, excitement level, frame size, body weight and genetic background were utilized for each of the two treatments. The labs utilized for the nutrition study were from a minimum of 6 different bitches. The lean body mass of the 40 test dogs was determined by scanning with the DEXA and the final key component utilized to assure equal groups. Prior to the start of the study, the labs were acclimated to the experimental diets for a minimum of 10 days. The labs were weighed at the beginning of the 90 day study and weighed every two weeks throughout the study. Feed consumption was determined daily by weighing feed provided and feed refusals. The quantity of food provided each dog on a daily basis was adjusted based on maintaining a minimum initial starting body weight throughout the study. […]

Q: How did the Final run time (both sexes) turn out when `C[N+](C)(C)C[C@H](O)CC(=O)[O-]` [L-carnitine] was run?
A: The Final run time was 95.84 min and 95.84 ± 1.417^A n = 19 min.

Q: What about the Final run time (females) of the same compound?
A: The Final run time was 98.50 ± 3.179 n = 8 min.

Q: What about the Final run time (males) of the same compound?
A: Its Final run time is 93.91 ± 0.4564^A n = 11 min.

Q: What about the “15-mile timed run, minutes faster than control” value (both sexes vs control dogs) of the same compound?
A: Its value is 6.56 min.

Q: And the “15-mile timed run, minutes faster than control” value (males vs control males)?
A: Its value is 8.69 min.
